Legend:
[1] = system: birch pollen allergic patients; test: Skin prick testing of allergic patients; format: in vivo, human
Experimental: SPTs were performed on the individuals forearms as described ([…]. et al. (1997) J. Clin Invest. 99, 1673-168; Dreborg S: (1989) J. Am. Acad. DerMatol. 21, 820-821). […] In addition standardized skin prick solutions (birch pollen extract and histamine) (Allergopharma, Reinbek, Germany) were tested. Reactions were recorded 20 minutes after SPT by photography and by transferring the ballpoint pen-surrounded wheal area with a scotch tape to paper.

[2] = system: IgE antibodies in sera from birch pollen allergic patients; test: ELISA detection of peptide- and rBet v 1-specific IgE antibodies; format: binding, human
Experimental: Birch pollen allergic patients suffering from allergic rhinoconjunctivitis and/or asthma to birch pollen and related allergens were selected according to case history indicative for seasonal birch pollinosis and characterized by skin prick testing with birch pollen extract and serological CAP RAST (Pharmacia Diagnostics, Uppsala, Sweden) testing. Total IgE levels in the sera were determined by CAP RIST measurements (Pharmacia). […] Sera from 60 birch pollen allergic patients and a non-atopic individual were used for IgE competition studies. The birch pollen allergic patients group consisted of 25 males and 35 females with a mean age of 37 years (ranging from 19-60 years) (Table 2).
Subsequently, plates were incubated with 1:3 diluted sera from 60 birch pollen allergic patients and from a non-atopic individual overnight at 4° C. Bound IgE antibodies were detected with a 1:1000 diluted alkaline-phosphatase-coupled mouse monoclonal anti-human IgE antibody (Pharmingen, San Diego, Calif.).

Compound: NCCc1c[nH]cn1 [histamine, reference compound]
- mean wheal diameter ([1]; individual 1, standardized skin prick solution): 5 mm
- mean wheal diameter ([1]; individual 2, standardized skin prick solution): 6 mm
- mean wheal diameter ([1]; individual 3, standardized skin prick solution): 7 mm
- mean wheal diameter ([1]; individual 4, standardized skin prick solution): 5 mm
- mean wheal diameter ([1]; individual 5, standardized skin prick solution): 5.5 mm
- mean wheal diameter ([1]; individual 6 (without birch pollen allergy), standardized skin prick solution): 4 mm
- immediate skin reaction ([1]; standardized skin prick solutions): All individuals reacted

Compound: CGPGTIKKISFPEGFPFKYVKDRVDEVDHTN [Peptide P3, Bet v 1-derived synthetic peptide, position aa 50-79, one cysteine added]
- IgE (OD) ([2]; serum of NHS, non-allergic control individual): — (Dashes indicate reactivities below the cut-off level (OD=0.050))
- IgE (OD) ([2]; serum of patient 1): — (Dashes indicate reactivities below the cut-off level (OD=0.050))
- IgE (OD) ([2]; serum of patient 2): — (Dashes indicate reactivities below the cut-off level (OD=0.050))
- IgE (OD) ([2]; serum of patient 3): — (Dashes indicate reactivities below the cut-off level (OD=0.050))
- IgE (OD) ([2]; serum of patient 4): — (Dashes indicate reactivities below the cut-off level (OD=0.050))
- IgE (OD) ([2]; serum of patient 5): — (Dashes indicate reactivities below the cut-off level (OD=0.050))
- IgE (OD) ([2]; serum of patient 6): — (Dashes indicate reactivities below the cut-off level (OD=0.050))
- IgE (OD) ([2]; serum of patient 7): — (Dashes indicate reactivities below the cut-off level (OD=0.050))
- IgE (OD) ([2]; serum of patient 8): — (Dashes indicate reactivities below the cut-off level (OD=0.050))
- IgE (OD) ([2]; serum of patient 9): — (Dashes indicate reactivities below the cut-off level (OD=0.050))
- IgE (OD) ([2]; serum of patient 10): — (Dashes indicate reactivities below the cut-off level (OD=0.050))
- IgE (OD) ([2]; serum of patient 11): — (Dashes indicate reactivities below the cut-off level (OD=0.050))
- IgE (OD) ([2]; serum of patient 12): — (Dashes indicate reactivities below the cut-off level (OD=0.050))
- IgE (OD) ([2]; serum of patient 13): — (Dashes indicate reactivities below the cut-off level (OD=0.050))
- IgE (OD) ([2]; serum of patient 14): — (Dashes indicate reactivities below the cut-off level (OD=0.050))
- IgE (OD) ([2]; serum of patient 15): — (Dashes indicate reactivities below the cut-off level (OD=0.050))
- IgE (OD) ([2]; serum of patient 16): — (Dashes indicate reactivities below the cut-off level (OD=0.050))
- IgE (OD) ([2]; serum of patient 17): — (Dashes indicate reactivities below the cut-off level (OD=0.050))
- IgE (OD) ([2]; serum of patient 18): — (Dashes indicate reactivities below the cut-off level (OD=0.050))
- IgE (OD) ([2]; serum of patient 19): — (Dashes indicate reactivities below the cut-off level (OD=0.050))
- IgE (OD) ([2]; serum of patient 20): — (Dashes indicate reactivities below the cut-off level (OD=0.050))
- IgE (OD) ([2]; serum of patient 21): — (Dashes indicate reactivities below the cut-off level (OD=0.050))
- IgE (OD) ([2]; serum of patient 22): — (Dashes indicate reactivities below the cut-off level (OD=0.050))
- IgE (OD) ([2]; serum of patient 23): — (Dashes indicate reactivities below the cut-off level (OD=0.050))
- IgE (OD) ([2]; serum of patient 24): — (Dashes indicate reactivities below the cut-off level (OD=0.050))
- IgE (OD) ([2]; serum of patient 25): — (Dashes indicate reactivities below the cut-off level (OD=0.050))
- IgE (OD) ([2]; serum of patient 26): — (Dashes indicate reactivities below the cut-off level (OD=0.050))
- IgE (OD) ([2]; serum of patient 27): — (Dashes indicate reactivities below the cut-off level (OD=0.050))
- IgE (OD) ([2]; serum of patient 28): — (Dashes indicate reactivities below the cut-off level (OD=0.050))
- IgE (OD) ([2]; serum of patient 29): — (Dashes indicate reactivities below the cut-off level (OD=0.050))
- IgE (OD) ([2]; serum of patient 30): — (Dashes indicate reactivities below the cut-off level (OD=0.050))
- IgE (OD) ([2]; serum of patient 31): — (Dashes indicate reactivities below the cut-off level (OD=0.050))
- IgE (OD) ([2]; serum of patient 32): — (Dashes indicate reactivities below the cut-off level (OD=0.050))
- IgE (OD) ([2]; serum of patient 33): — (Dashes indicate reactivities below the cut-off level (OD=0.050))
- IgE (OD) ([2]; serum of patient 34): — (Dashes indicate reactivities below the cut-off level (OD=0.050))
- IgE (OD) ([2]; serum of patient 35): — (Dashes indicate reactivities below the cut-off level (OD=0.050))
- IgE (OD) ([2]; serum of patient 36): — (Dashes indicate reactivities below the cut-off level (OD=0.050))
- IgE (OD) ([2]; serum of patient 37): — (Dashes indicate reactivities below the cut-off level (OD=0.050))
- IgE (OD) ([2]; serum of patient 38): — (Dashes indicate reactivities below the cut-off level (OD=0.050))
- IgE (OD) ([2]; serum of patient 39): — (Dashes indicate reactivities below the cut-off level (OD=0.050))
- IgE (OD) ([2]; serum of patient 40): — (Dashes indicate reactivities below the cut-off level (OD=0.050))
- IgE (OD) ([2]; serum of patient 41): — (Dashes indicate reactivities below the cut-off level (OD=0.050))
- IgE (OD) ([2]; serum of patient 42): — (Dashes indicate reactivities below the cut-off level (OD=0.050))
- IgE (OD) ([2]; serum of patient 43): — (Dashes indicate reactivities below the cut-off level (OD=0.050))
- IgE (OD) ([2]; serum of patient 44): — (Dashes indicate reactivities below the cut-off level (OD=0.050))
- IgE (OD) ([2]; serum of patient 45): — (Dashes indicate reactivities below the cut-off level (OD=0.050))
- IgE (OD) ([2]; serum of patient 46): — (Dashes indicate reactivities below the cut-off level (OD=0.050))
- IgE (OD) ([2]; serum of patient 47): — (Dashes indicate reactivities below the cut-off level (OD=0.050))
- IgE (OD) ([2]; serum of patient 48): — (Dashes indicate reactivities below the cut-off level (OD=0.050))
- IgE (OD) ([2]; serum of patient 49): — (Dashes indicate reactivities below the cut-off level (OD=0.050))
- IgE (OD) ([2]; serum of patient 50): — (Dashes indicate reactivities below the cut-off level (OD=0.050))
- IgE (OD) ([2]; serum of patient 51): — (Dashes indicate reactivities below the cut-off level (OD=0.050))
- IgE (OD) ([2]; serum of patient 52): — (Dashes indicate reactivities below the cut-off level (OD=0.050))
- IgE (OD) ([2]; serum of patient 53): — (Dashes indicate reactivities below the cut-off level (OD=0.050))
- IgE (OD) ([2]; serum of patient 54): — (Dashes indicate reactivities below the cut-off level (OD=0.050))
- IgE (OD) ([2]; serum of patient 55): — (Dashes indicate reactivities below the cut-off level (OD=0.050))
- IgE (OD) ([2]; serum of patient 56): — (Dashes indicate reactivities below the cut-off level (OD=0.050))
- IgE (OD) ([2]; serum of patient 57): — (Dashes indicate reactivities below the cut-off level (OD=0.050))
- IgE (OD) ([2]; serum of patient 58): — (Dashes indicate reactivities below the cut-off level (OD=0.050))
- IgE (OD) ([2]; serum of patient 59): — (Dashes indicate reactivities below the cut-off level (OD=0.050))
- IgE (OD) ([2]; serum of patient 60): — (Dashes indicate reactivities below the cut-off level (OD=0.050))
- mean wheal diameter ([1]; individual 1, 100 μg/ml): 0 mm
- mean wheal diameter ([1]; individual 2, 100 μg/ml): 0 mm
- mean wheal diameter ([1]; individual 3, 100 μg/ml): 0 mm
- mean wheal diameter ([1]; individual 4, 100 μg/ml): 0 mm
- mean wheal diameter ([1]; individual 5, 100 μg/ml): 0 mm
- mean wheal diameter ([1]; individual 6 (allergic, without birch pollen allergy), 100 μg/ml): 0 mm

— patent US7244431B2, “Allergy vaccines and their preparation” (priority 2000, dated 2007)
